# Test results taken from paper PMC12516686, “Design of 2‑Aminobenzothiazole Derivatives Targeting Trypanosomatid PTR1 by a Multidisciplinary Fragment Hybridization Approach” (Journal of Medicinal Chemistry, 2025).
# Where two headings read alike, the source gives them in different places.
# T1: TbPTR1 (Trypanosoma brucei brucei, UniProt O76290)
# T1 sequence (O76290 1-268): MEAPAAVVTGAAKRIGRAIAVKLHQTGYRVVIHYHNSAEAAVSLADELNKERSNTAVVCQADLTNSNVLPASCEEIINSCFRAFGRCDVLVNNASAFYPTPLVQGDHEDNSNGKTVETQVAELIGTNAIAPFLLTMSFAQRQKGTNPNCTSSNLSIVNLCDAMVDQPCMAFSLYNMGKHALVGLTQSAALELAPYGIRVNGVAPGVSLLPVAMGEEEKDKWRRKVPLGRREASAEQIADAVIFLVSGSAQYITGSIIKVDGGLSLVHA
# T2: LmPTR1 (Leishmania major, UniProt Q01782)
# T2 sequence (Q01782 1-288): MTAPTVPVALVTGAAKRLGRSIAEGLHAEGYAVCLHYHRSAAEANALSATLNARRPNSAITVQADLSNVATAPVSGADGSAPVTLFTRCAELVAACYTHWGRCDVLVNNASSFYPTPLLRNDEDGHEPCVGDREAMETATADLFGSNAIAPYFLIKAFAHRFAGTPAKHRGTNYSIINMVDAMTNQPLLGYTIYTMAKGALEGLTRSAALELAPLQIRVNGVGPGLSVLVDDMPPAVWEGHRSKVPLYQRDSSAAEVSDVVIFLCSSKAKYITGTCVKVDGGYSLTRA
# B1: Trypanosoma brucei pteridine reductase 1 (enzyme)
# chain: T1 sequence (O76290 1-268)
# modifications: Cys168 oxidized to S-oxycysteine (Csx168) in the crystal structures
# notes: Pteridine reductase 1 (PTR1) of Trypanosoma brucei; Ala268 is called the C-terminus; also called TbPTR1; PTR1; source: E. coli BL21(DE3), purified (IMAC on HisTrap FF, SEC on Superdex 200)
# Assays:
# [1] = biological target: T1, TbPTR1; design: method as in PMID 30908048; conditions: cited from earlier work; for TbPTR1 % enzyme inhibition: at 50 μM ref 22; for IC50: reference compounds, SD within ± 10% ref 22
# [2] = biological target: T2, LmPTR1; design: method as in PMID 30908048; conditions: at 50 μM ref 22; cited from earlier work
# [3] = tested on: Trypanosoma brucei brucei L427 wild-type (WT) bloodstream forms; design: method as in PMID 30908048; conditions: cited from earlier work; for EC50: read-out: T. brucei EC50; for T. brucei % cell growth inhibition: at 10 μM ref 22
# [4] = tested on: L. infantum intracellular amastigotes; design: method as in PMID 30908048; conditions: at 10 μM; intracellular amastigotes ref 22; cited from earlier work
# [5] = tested on: THP-1-derived macrophages; design: method as in PMID 30908048; conditions: cytotoxic concentration for THP1 cells ref 22; cited from earlier work
# [6] = biological target: T1, TbPTR1; assay: TbPTR1 kinetic direct enzyme assay (NADPH consumption); assay type: biochemical; conditions: direct method of activity measurement, duplicate
# Method: A direct kinetic assay was carried out to measure NADPH consumption over time using a Jasco V730 double-beam spectrophotometer. The assay was conducted as reported in ref . Thawed protein was incubated in 40 mM citrate buffer (pH 3.7) at a final concentration of 30 nM, along with the endogenous substrate at 27 μM. The reaction was carried out in a Kartell semimicro disposable polystyrene plastic cuvette (Kartell LABWARE, Milan, Italy). […] The maximum DMSO concentration was 2% in the assay solution. Each compound was tested in duplicate with a control assay without the inhibitor. The experiment was conducted 3 times. The reaction was initiated by adding NADP(H) to a final concentration of 134 μM in the cuvette, and the change in absorbance (ΔOD/min) at λ = 340 nm was monitored over 180 s at 25 °C with 27 μM. Six different concentrations were analyzed and fitted to a three-parameter logistical (3PL) model. A 95% confidence interval (CI) was used to calculate the standard error for each curve fitting, and a Student’s t test was performed for each duplicate with a significance threshold of p ≤ 0.05. Data fitting and statistical analysis were carried out using the GraphPad Prism Suite (2021).
# [7] = tested on: THP-1-derived macrophages; assay: Cytotoxicity assay (MTT) on THP-1-derived macrophages; assay type: cell-based, Human; conditions: cytotoxic concentration for THP1 cells
# Method: Human leukemia cell line THP-1 (ATCC TIB202) cells were cultured in RPMI-1640 medium supplemented with 10% heat-inactivated fetal bovine serum (FBS), 2 mM L-glutamine, 100 IU/mL penicillin/streptomycin, and 20 mM HEPES. The cell line was maintained in a humidified incubator at 37 °C with 5% CO2. Subcultures were performed every 3 days in 20 mL of media at a concentration of 2 × 10^5 cells/mL in a T75 flask. All cell culture reagents were purchased from Lonza Bioscience (Morrisville, NC).
# The cytotoxicity of the compounds on THP-1-derived macrophages was assessed using the colorimetric MTT assay (3-(4,5-dimethylthiazol-2-yl)-2,5-diphenyl tetrazolium bromide) as described elsewhere. THP-1 cells were suspended in RPMI complete medium at a density of 1 × 10^6 cells/mL, and 100 μL/well was seeded in a 96-well plate. The cells were differentiated into macrophages by adding 40 ng/mL of phorbol-myristate 13-acetate (PMA, Sigma, Saint Louis, MI, USA) for 24 h, followed by replacement with fresh medium for another 24 h. Subsequently, the cells were incubated with 100 μL of compounds, ranging from 100 to 12.5 μM, diluted in RPMI complete medium. Each condition was tested in triplicate. After 72 h of incubation at 37 °C with 5% CO2, the medium was removed, and 200 μL of 0.5 mg/mL MTT solution diluted in RPMI was added. The plates were incubated for an additional 4 h, after which 160 μL of the media was removed and replaced with 160 μL of 2-propanol. Absorbance was read at 570 nm using a Synergy 2 Multi-Mode Reader (Biotek, Winooski, VT, USA). Cytotoxicity was evaluated by presenting the CC50 (the concentration of the drug that reduces cell viability by 50%) interval or by determining the CC50 value through nonlinear regression analysis using GraphPad Prism version 8.1.1 for Windows (GraphPad Software, San Diego, CA, USA). Results represent the average of at least three independent experiments.
# [8] = tested on: Trypanosoma brucei brucei L427 wild-type (WT) bloodstream forms; assay: Activity against T. brucei (resazurin-based assay); assay type: cell-based; conditions: at 10 μM
# Method: The parasites were grown in 5 mL T25 ventilated flasks containing complete HMI-9 medium. The medium was supplemented with 10% heat-inactivated FBS and 100 IU/mL penicillin/streptomycin. To maintain the cultures, subpassages were performed every 2 days at a concentration of 1 × 10^4 cells/mL.
# The efficacy of the compounds against Trypanosoma brucei brucei L427 wild-type (WT) bloodstream forms was assessed using a resazurin-based assay as described elsewhere. T. b. brucei L427 bloodstream forms were prepared at a cell density of 5 × 10^3 cells/mL in supplemented complete medium. Serial dilutions of the test compounds were prepared in a final volume of 100 μL, and 100 μL of the parasite suspension was added to each well containing the compound dilutions, resulting in a total volume of 200 μL per well. A dose–response curve for pentamidine was included as a quality control in each assay, and each condition was tested in duplicate. The plates were incubated for 72 h under the specified conditions for the parasite. After the incubation period, 20 μL of a 0.5 mM resazurin solution was added to each well, and the plates were incubated for an additional 4 h under the same conditions. Fluorescence was measured at an excitation wavelength of 544 nm and an emission wavelength of 590 nm using a Synergy 2 Multi-Mode Reader (Biotek, Winooski, VT, USA). The results were expressed as the percentage of parasite growth inhibition compared to the control (untreated parasites) and represented the average of at least three independent experiments.
# [9] = biological target: the molecule itself; assay: crystal structure; hanging-drop vapour diffusion, crystals soaked with inhibitors; space group P2(1), asymmetric unit holds a functional TbPTR1 tetramer; ternary complexes with NADP(H) and 1a, 2b, 2c, 2d or 2e
molecule,measurement,setting,value
Nc1nc2c(O)cc(C(=O)NCc3ccc(Cl)c(Cl)c3)cc2s1 [VII],TbPTR1 % enzyme inhibition,[1],11.8±4.6%
same,LmPTR1 % enzyme inhibition,[2],8.7±0.6%
same,EC50,[3],5.9 µM
same,L. infantum % cell growth inhibition,[4],24±15%
Nc1nc2ccc(SCc3ccc(Cl)c(Cl)c3)cc2s1 [III],IC50,[1],0.9 µM
same,T. brucei % cell growth inhibition,[3],46±1%
Nc1nc2ccc(C(=O)NCc3ccc(Cl)c(Cl)c3)cc2s1 [V],IC50,[1],5.4 µM
Nc1nc2ccc(OCc3ccc(Cl)c(Cl)c3)cc2s1 [II],IC50,[1],3.4 µM
same,T. brucei % cell growth inhibition,[3],42±11%
same,CC50,[5],> 100 µM
Nc1nc2ccc(S(=O)(=O)Cc3ccc(Cl)c(Cl)c3)cc2s1 [IV],TbPTR1 % enzyme inhibition,[1],16.7±8.4%
same,LmPTR1 % enzyme inhibition,[2],26.9±1.8%
same,T. brucei % cell growth inhibition,[3],37±11%
same,L. infantum % cell growth inhibition,[4],21±5%
COc1ccc(CN(Cc2ccc(Cl)c(Cl)c2)C(=O)c2ccc3nc(N)sc3c2)cc1OC [VI],IC50,[1],15.9 µM
same,EC50,[3],9.7 µM
2-amino-N-(4-(trifluoromethyl)phenethyl)benzo[d]thiazole-6-carboxamide [Compound 2f],IC50,[6],5.7 µM
same,CC50,[7],> 100 µM
2-amino-N-(3-(trifluoromethyl)phenethyl)benzo[d]thiazole-6-carboxamide [Compound 2g],IC50,[6],7 µM
same,T. brucei % cell growth inhibition,[8],31±7%
same,CC50,[7],> 100 µM
B1,stoichiometry N,[9],4
